Results: US5817674A, “Quinoline compounds” (Roussel Uclaf, priority 1991, dated 1998)

Legend:
[1] = system: angiotensin II on the isolated portal vein; assay: antagonistic activity of angiotensin II on the isolated portal vein; set-up: species or system male Wistar rats; settings: rat isolated portal vein; angiotensin II 3.10^-8 M; compound 15 minutes before stimulation; 37° C.; verapamil 1.10^-6 M; read-out: IC50 (concentration that produced a 50% inhibition of the response to angiotensin)
Protocol: The portal vein was removed from male Wistar rats weighing about 350 g (IFFA Credo France) after cervical dislocation. It was put rapidly into a physiological solution (see below) at ambient temperature and a ring of about 1 mm was mounted in a bath with an isolated element containing 20 ml of the following physiological solution (composition in mM: NaCl 118.3-KCl 4.7-MgSO4 1.2-KH2 PO4 1.2-NaHCO3 25-glucose 11.1-CaCl2 2.5). The medium was held at 37° C. and oxygenated by a mixture of O2 95%, CO2 5%. The initial pressure imposed was 1 g and the rings were left at rest for 60 to 90 minutes. To avoid spontaneous contractions, verapamil was added to the incubation bath (1.10^-6 M).
At the end of rest period, angiotensin II (Ciba hypertensin) 3.10^-8 M was added to the incubation bath and left in contact with the preparation for one minute. This operation was repeated every 30 minutes with the tissue being washed 3 or 4 times between two stimulations with angiotensin. The compound to be studied was introduced into the bath 15 minutes before a new stimulation with angiotensin. As increasing concentrations of this molecule were used, an IC50 (concentration that produced a 50% inhibition of the response to angiotensin) was calculated, expressed in nanomoles.

angiotensin II receptor = molecular target: T1, angiotensin II receptor (Rattus norvegicus, UniProt P25095); assay: Test on the angiotensin II receptor (rat liver membranes, 125I angiotensin II); assay type: binding; settings: pH 7.4, 25° C., 150 minutes, read-out: IC50 (displacement of 50% of the specific radioactivity fixed on the receptor)
T1 construct: A fresh membrane preparation obtained from the liver of a rat was used; from tissue; host or cells: rat liver membranes
T1 sequence (P25095 1-359): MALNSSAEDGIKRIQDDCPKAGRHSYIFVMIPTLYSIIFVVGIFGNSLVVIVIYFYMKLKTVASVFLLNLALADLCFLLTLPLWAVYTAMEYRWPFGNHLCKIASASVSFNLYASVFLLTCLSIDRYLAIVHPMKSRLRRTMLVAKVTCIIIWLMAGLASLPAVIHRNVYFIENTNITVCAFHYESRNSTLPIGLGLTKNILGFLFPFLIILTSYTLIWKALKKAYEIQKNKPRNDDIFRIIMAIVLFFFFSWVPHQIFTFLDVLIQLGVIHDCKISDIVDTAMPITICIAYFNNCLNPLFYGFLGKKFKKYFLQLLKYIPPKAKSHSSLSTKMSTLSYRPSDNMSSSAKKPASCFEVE
Protocol: 1) Test on the angiotensin II receptor
A fresh membrane preparation obtained from the liver of a rat was used. The tissue was ground up in a polytron in a Tris 50 mM pH 7.4 buffer and after being ground up, the tissue was centrifuged 3 times at 30,000 g for 15 mintues with intermediate taking up of the deposits in the Tris pH 7.4 buffer. The last deposits were suspended in a pH 7.4 incubation buffer (Tris 20 mM, NaCl 135 mM, KCl 10 mM, glucose 5 mM, MgCl2 10 mM, benzyl sulfonyl fluoride 0.3 mM, bacitracin 0.1 mM, (0.2% bovine albumin serum). 2 ml aliquoted fractions were divided into hemolysis tubes and 125I angiotensin II (25,000 DPM/tube) and the product to be studied were added. The product was first tested at 3×10^-5 M in triplicate. When the test product displaced more than 50% of the radioactivity linked specifically to the receptor, it was tested again in a range of 7 concentrations to determine the concentration that inhibited the radioactivity linked specifically to the receptor by 50%. In this way, the 50% inhibiting concentration was determined.
The non-specific bond was determined by the addition of the product of Example 94 of the European Patent No. 0,253,310 at 10^-5 M (in triplicate). […]

[2] = system: vasoconstrictive effect of endotheline; assay: antagonistic activity of the vasoconstrictive effect of endotheline in a demedullated rat; assay type: in vivo; settings: 1 mg/kg (IV), 10 minutes before endotheline 1-3-10-30 μg/kg IV; anaesthetized demedullated Sprague Dawley rats
Protocol: 4) Investigation of an antagonistic activity of the vasoconstrictive effect of endotheline in a demedullated rat
The vasoconstriction caused by injections (IV) of cumulative doses of endotheline (1-3-10-30 μg/kg) was measured by the increase of average arterial pressure in a control group of rats (Sprague Dawley), anaesthetized, then demedullated.

endotheline receptor = molecular target: T2, endotheline receptor (Rattus norvegicus, UniProt P21451); assay: activity on the endotheline receptor (rat posterior cortex plus cerebellum membranes, 125I Endotheline); assay type: binding; settings: pH 7.4, 25° C., 60 minutes, read-out: IC50 (displacement by 50% of the specific radioactivity fixed to the receptor)
T2 construct: prepared from rat's posteror cortex plus cerebellum; from tissue; host or cells: rat posterior cortex plus cerebellum membranes
T2 sequence (P21451 27-442): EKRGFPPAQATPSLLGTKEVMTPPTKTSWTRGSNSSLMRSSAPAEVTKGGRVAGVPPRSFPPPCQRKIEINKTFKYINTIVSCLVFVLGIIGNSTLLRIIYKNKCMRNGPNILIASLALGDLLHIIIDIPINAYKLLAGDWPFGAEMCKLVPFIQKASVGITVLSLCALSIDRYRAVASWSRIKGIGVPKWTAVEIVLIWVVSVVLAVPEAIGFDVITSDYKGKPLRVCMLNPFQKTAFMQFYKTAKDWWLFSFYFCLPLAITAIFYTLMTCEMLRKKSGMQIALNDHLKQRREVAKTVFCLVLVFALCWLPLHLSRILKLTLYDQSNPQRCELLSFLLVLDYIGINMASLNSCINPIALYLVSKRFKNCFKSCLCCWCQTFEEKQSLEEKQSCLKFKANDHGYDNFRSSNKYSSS
Protocol: 3) Study of the activity on the endotheline receptor
A membrane preparaton was prepared from rat's posteror cortex plus cerebellum. The tissue was ground up in a POLYTRON in a Tris buffer 50 mM pH=7.4. After 30 minutes at 25° C. (W.B.), the homogenate was centrifuged at 30,000 g for 15 minutes (2 centrifugings with intermediate taking up in the Tris buffer pH 7.4). The deposits were suspended in an incubation buffer (Tris 25 mM, pepsteatine 5 microg/ml, aprotinine 3 microg/ml. PMSF 0.1 mM, EDTA 3 mM, EGTA 1 mM pH 7.4). 2 ml aliquots were distributed in hemolysis tubes and 125I Endotheline (about 50,000 dpm/tube) and the product to be studied were added. The product was first tested at 3×10^-5 M in triplicate. When the tested product displaced by more than 50% the radioactivity linked specifically to the receptor, it was tested again in a range of 7 concentrations to determine the concentration that inhibited the radioactivity linked specifically to the receptor by 50%. In this way, the 50% inhibiting concentration was determined.
The non-specific bond was determined by the addition of endotheline at 10^-6 M (in triplicate). The aliquot was incubated at 25° C. for 60 minutes, put in a water bath at 0° C. for 5 minutes, filtered under reduced pressure, rinsed with Tris buffer 7.4 pH and the radioactivity was counted in the presence of scintillating Triton. […]

Compound | IC50 [1] | IC50 (angiotensin II receptor) | antagonistic effect: decrease in response to endotheline (average arterial pressure) [2] | IC50 (endotheline receptor)
CCCCc1cc(Cc2ccc(-c3ccccc3C(=O)O)cc2)c2ccccc2n1 [Example 4, 4'-[(2-butyl-4-quinolinyl)-methyl](1,1'-biphenyl)-2-carboxylic acid] | 131 nM | 540 nM | – | –
CC(C)Cc1cc(OCc2ccc(-c3ccccc3C(=O)O)cc2)c2cccc(C(F)(F)F)c2n1 [Example 35, 4'-(((2-(2-methylproyl)-8-(trifluoromethyl)-4-quinolinyl)-oxy)-methyl)(1,1'-biphenyl)-2-carboxylic acid] | – | – | antagonistic effect | 14000 nM
